Data on six compounds can be found in US7537765B2, “Inhibition of HIV-1 replication by disruption of the processing of the viral capsid-spacer peptide 1 protein” (priority 2003, dated 2009).

Assay [1] relates to HIV-1 replication in H9 lymphocyte cells. The settings on record: cited from earlier work.
Assay [2] deals with HIV-1 infected MAGI cells. The assay is classed as cell-based. The text has this: To distinguish the inhibitory activity of DSB against early and late replication targets, a multinuclear activation of a galactosidase indicator (MAGI) assay was used. In this assay, the targets are HeLa cells stably expressing CD4, CXCR4, CCR5 and a reporter construct consisting of the—galactosidase gene (modified to localize to the nucleus) driven by a truncated HIV-1 LTR. Infection of these cells results in expression of Tat that drives activation of the β-galactosidase reporter gene. Expression of β-galactosidase in infected cells is detected using the chromogenic substrate X-gal.

Assay [3] relates to NNRTI-resistant HIV-1 isolates. The assay can be described thus: NNRTI-resistant HIV-1 isolates in MT-2 cells, cell viability (XTT) endpoint. The assay is classed as cell-based. To be noted: for IC50: X4, MT-2 cells. As to the method: (§1) The activity of DSB was tested against a panel of HIV-1 isolates resistant to approved drugs. These viruses were obtained from the NIH AIDS Research and Reference Reagent Program. Assays were performed using virus propagated in PBMCs with a p24 endpoint (above), or using cell line targets (MT-2 cells) and a cell killing endpoint. The MT-2 assay format was as follows. Serial dilutions of DSB, or each approved drug, were prepared in 96 well plates. To each sample well was added media containing MT-2 cells at 3×10^5 cells/mL and virus inoculum at a concentration necessary to result in 80% killing of the cell targets at 5 days post-infection (PI). On day 5 post-infection, virus-induced cell killing was determined by the XTT method and the inhibitory activity of the compound was determined.
On the technique in general: Tetrazolium dyes change colour on reduction, which living cells bring about.

The subject of assay [4] is drug resistant HIV-1 isolates. The assay can be described thus: Drug resistant HIV-1 isolates in fresh PBMC, p24 endpoint. Format: cell-based. The settings on record: for IC50: Human immunodeficiency virus 1, PBMC. The method, then:
(§2) A robust virus inhibition assay was used to evaluate the anti-viral activity of DSB against primary HIV-1 isolates propagated in PMBC. Briefly, serial dilutions of DSB were made in medium into 96-well tissue culture plates. 25-250 TCID50 of virus and 5×10^5 PHA-stimulated PBMCs were added to each well. On days 1, 3 and 5 post-infection, media was removed from each well and replaced with fresh media containing DSB at the appropriate concentration.
as §1

The subject of assay [5] is primary Clade B HIV-1 isolates. The assay can be described thus: Virus inhibition assay, primary HIV-1 isolates in PBMC, p24 endpoint. Format: cell-based. The settings on record: Human immunodeficiency virus 1, PBMC. The method, then:
as §2, with “concentration. On day 7 post-infection, culture supernatant was removed from each well for p24 detection of virus replication and 50% inhibitory concentrations (IC50) were calculated by standard methods.” for “concentration.”

Setting [6] is: H9 lymphocyte cells, read-out: EC50, inhibitory activity against HIV-1 replication.
[7] abbreviates: Human immunodeficiency virus 1, MT2, isolate 3, NNRTI-resistant, Y181C.
Setting [8] is: Human immunodeficiency virus 1, MT2, isolate 4, NNRTI-resistant, K103N Y181C.
[9] abbreviates: isolate 1, NRTI-resistant, K70R T215Y/F, R5/X4.
[10] abbreviates: isolate 2, NRTI-resistant, K70R T215Y/F, R5/X4.
The mark [11] stands for this setting: isolate 5, Protease-resistant, V82A, X4.
Setting [12] is: isolate 6, Protease-resistant, I84V, X4.
Where [13] appears, read: isolate 7, Protease-resistant, L10R/M46I/L63P/V82T/I84V, X4.
Where [14] appears, read: 168 h, isolate 92HT599, co-receptor X4, PBMC, p24 day 7, read-out: IC50.
Setting [15] is: 168 h, isolate 92US723, co-receptor R5/X4, PBMC, p24 day 7, read-out: IC50.
[16] abbreviates: 168 h, isolate 3401N*, co-receptor R5/X4, PBMC, p24 day 7, read-out: IC50.
Where [17] appears, read: 168 h, isolate 19101N*, co-receptor R5, PBMC, p24 day 7, read-out: IC50.
The mark [18] stands for this setting: 168 h, isolate 22101N*, co-receptor R5/X4, PBMC, p24 day 7, read-out: IC50.
Setting [19] is: 168 h, isolate BZ167, co-receptor X4, PBMC, p24 day 7, read-out: IC50.
The mark [20] stands for this setting: 168 h, isolate US1, co-receptor R5, PBMC, p24 day 7, read-out: IC50.
Setting [21] is: mean over the panel of primary isolates, read-out: IC50, Mean.

Molecules are shown by their SMILES. Like-named read-outs stand apart in the source and are kept apart here. Where only a bound is given, the exact number is not on record here.

The term EC50 denotes the concentration that produces a half-maximal response. For `C=C(C)[C@@H]1CC[C@]2(C(=O)O)CC[C@]3(C)[C@H](CC[C@@H]4[C@@]5(C)CC[C@H](O)C(C)(C)[C@@H]5CC[C@]43C)[C@@H]12` [Betulinic acid], in assay [1] (setting [6]), the concentration for a half-maximal effect (EC50) was 1400 nM.
With `CC(C)[C@@H]1CC[C@]2(C(=O)O)CC[C@]3(C)C(CCC4[C@@]5(C)CC[C@H](O)C(C)(C)C5CC[C@]43C)C12` (stereo partly drawn) [dihydrobetulinic acid], the EC50 in assay [1] (unit inferred, read-out: EC50, anti-HIV activity) was 900 nM.
For orientation: IC50 means the concentration needed to halve the response being measured. As for `CC(C)(C)NC(=O)[C@@H]1CN(Cc2cccnc2)CCN1C[C@@H](O)C[C@@H](Cc1ccccc1)C(=O)N[C@H]1c2ccccc2C[C@H]1O` [Indinavir, indinavir], in assay [2], the “% Decrease (β-galactosidase expression)” value is listed as 10%. For the same compound, the IC50 in assay [3] (setting [7]) stood at 2.5 nM; in assay [3] (setting [8]), 4.5 nM; in assay [4] (setting [9]), 9.8 nM; in assay [4] (setting [10]) it was 6.1 nM; in assay [4] (setting [11]), 39.7 nM; in assay [4] (setting [12]) it was 32.7 nM. The compound also had an IC50 in assay [4] (setting [13]) of 72.5 nM.
As for `Cc1cn([C@H]2C[C@H](N=[N+]=[N-])[C@@H](CO)O2)c(=O)[nH]c1=O` [AZT, zidovudine], the “% Decrease (β-galactosidase expression)” value in assay [2] (HIV-1 infected MAGI cells) amounted to 82%. For the same compound, the 50% inhibitory concentration (IC50) turned out to be 5.1 nM in assay [3] (setting [7]); 2 nM in assay [3] (setting [8]); 86.4 nM in assay [4] (setting [9]); 63.4 nM in assay [4] (setting [10]); 13.1 nM in assay [4] (setting [11]); 14.4 nM in assay [4] (setting [12]). The IC50 in assay [4] (setting [13]) turned out to be 3.5 nM; in assay [5] (setting [14]), 5.8 nM; in assay [5] (setting [15]), 1.2 nM; in assay [5] (setting [16]) it was 17.5 nM; in assay [5] (setting [17]), 2.4 nM; in assay [5] (setting [18]), 0.9 nM. The IC50 in assay [5] (setting [19]) amounted to 2.2 nM; in assay [5] (setting [20]) it was 0.9 nM; in assay [5] (setting [21]), 4.4 nM. The “Fold Resistance” value in assay [4] (isolate 1, NRTI-resistant) is 54 X; in assay [4] (isolate 2, NRTI-resistant) it was 40 X.
`CC(=O)[C@@H]1CC[C@]2(C(=O)O)CC[C@]3(C)[C@H](CC[C@@H]4[C@@]5(C)CC[C@H](O)C(C)(C)[C@@H]5CC[C@]43C)[C@@H]12` [platanic acid]: the EC50 in assay [1] (setting [6]) was 6500 nM.
For the compound `Cc1ccnc2c1NC(=O)c1cccnc1N2C1CC1` [Nevirapine, nevirapine], in assay [2] (HIV-1 infected MAGI cells), the “% Decrease (β-galactosidase expression)” value was found to be 85%. Also, the IC50 is > 3800 nM in assay [3] (setting [7]); 2630 nM in assay [3] (setting [8]); 25.3 nM in assay [5] (setting [14]); 26.8 nM in assay [5] (setting [15]); 32.1 nM in assay [5] (setting [16]); 59.4 nM in assay [5] (setting [17]). The IC50 is 4.9 nM in assay [5] (setting [18]), 31.2 nM in assay [5] (setting [19]), 22.1 nM in assay [5] (setting [20]) and 28.8 nM in assay [5] (setting [21]). The “Fold Resistance” value in assay [3] (isolate 3, NNRTI-resistant) was “(>177X)”; in assay [3] (isolate 4, NNRTI-resistant), “(122X)”.
